Experimental findings from patent US20190135834A1, “5-SUBSTITUTED AZABENZIMIDAZOLE DERIVATIVE HAVING ???? ACTIVATION ACTION” (Shionogi & Co., Ltd., priority 2016, published 2019) are described below.

This test concerns the target T1, Human AMPK α2ß2γ1 (Homo sapiens, UniProt O43741+P54646).
T1 construct: The full length cDNAs of human AMPK ß2 (NM_005399.3) and human AMPK α2 (NM_006252.3); The full length cDNAs of human AMPK ß2 (NM_005399.3); 6xHis (N); made in house; host or cells: Escherichia coli BL21 CodonPlus (DE3)-RIL
Put plainly: Test Example 2: evaluation of an activator for AMP-activated protein kinase (AMPK), LabChip mobility shift assay with CaMKK2-phosphorylated enzyme. The note with it: for EC150 (compound concentration showing 150% relative to the control (100%)): FL-Peptide 7 substrate, 25° C., 2 hours; for Emax: relative to control (100%), read-out: Emax (maximum rate of increase in activity within the measurement range). The format is biochemical. Summed up:
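E. coli-expressed His-tagged human AMPK α2β2γ1 preactivated with GST-CaMKK2 (0.2 mM ATP, 25° C, 1–1.5 h), preincubated 10 min with compound (1% DMSO), then reacted 2 h at 25° C with 3 μM FL-Peptide 7 and 0.4 mM ATP in substrate solution, pH 7.0. Mobility-shift conversion rate gives % activity increase over no-compound control.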

SMILES strings stand for the structures.

T1 sequence (P54646 whole entry): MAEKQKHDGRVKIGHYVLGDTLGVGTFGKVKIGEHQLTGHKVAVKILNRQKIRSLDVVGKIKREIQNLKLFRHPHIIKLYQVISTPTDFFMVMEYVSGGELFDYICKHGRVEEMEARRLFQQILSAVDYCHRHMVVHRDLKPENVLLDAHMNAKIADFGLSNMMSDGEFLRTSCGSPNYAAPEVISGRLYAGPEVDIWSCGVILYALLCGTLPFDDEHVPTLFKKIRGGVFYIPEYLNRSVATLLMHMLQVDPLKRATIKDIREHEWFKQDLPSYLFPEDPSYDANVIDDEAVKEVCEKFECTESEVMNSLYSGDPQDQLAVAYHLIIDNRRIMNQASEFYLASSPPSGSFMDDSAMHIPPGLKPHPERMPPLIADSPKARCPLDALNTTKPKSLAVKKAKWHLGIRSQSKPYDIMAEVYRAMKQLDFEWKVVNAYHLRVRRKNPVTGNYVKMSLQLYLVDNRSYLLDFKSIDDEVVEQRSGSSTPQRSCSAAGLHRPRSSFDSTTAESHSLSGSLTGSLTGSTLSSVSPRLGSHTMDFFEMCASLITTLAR
T1 sequence (O43741 whole entry): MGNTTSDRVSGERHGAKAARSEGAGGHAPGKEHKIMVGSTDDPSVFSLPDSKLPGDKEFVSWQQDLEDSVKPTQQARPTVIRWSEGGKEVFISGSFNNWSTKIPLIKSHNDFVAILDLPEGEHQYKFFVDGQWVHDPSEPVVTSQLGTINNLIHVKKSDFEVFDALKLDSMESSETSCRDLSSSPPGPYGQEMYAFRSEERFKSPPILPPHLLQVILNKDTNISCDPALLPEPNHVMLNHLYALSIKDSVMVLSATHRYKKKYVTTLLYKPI
T1 sequence (P54619 whole entry partner): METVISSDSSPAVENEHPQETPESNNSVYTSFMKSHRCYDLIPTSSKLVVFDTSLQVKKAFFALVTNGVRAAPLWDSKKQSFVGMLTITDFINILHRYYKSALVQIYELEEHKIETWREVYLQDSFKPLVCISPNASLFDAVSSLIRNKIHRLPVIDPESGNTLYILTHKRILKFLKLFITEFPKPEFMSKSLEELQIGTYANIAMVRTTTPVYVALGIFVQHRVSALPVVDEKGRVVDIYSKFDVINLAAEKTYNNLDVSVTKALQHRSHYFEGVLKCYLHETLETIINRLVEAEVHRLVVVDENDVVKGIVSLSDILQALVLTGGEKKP

What is called Emax is the maximal effect, on the per cent scale that the assay sets. Take `O[C@@H]1CO[C@H]2[C@@H]1OC[C@H]2Oc1nc2nc(N[C@H]3CCc4cc(/C=C/COC5CCCCO5)cc(F)c43)c(Cl)cc2[nH]1` (some centres unmarked) [Compound I-2-39]: the “EC150 (compound concentration showing 150% relative to the control (100%))” value came to 11 nM and the Emax worked out at 583%.

Turning to `O[C@@H]1CO[C@H]2[C@@H]1OC[C@H]2Oc1nc2nc(NC3CCc4cc(OCCOC5CC5)cc(F)c43)c(Cl)cc2[nH]1` (some centres unmarked) [Compound I-2-40], the “EC150 (compound concentration showing 150% relative to the control (100%))” value was 4.1 nM and the Emax was found to be 604%.

With `O[C@@H]1CO[C@H]2[C@@H]1OC[C@H]2Oc1nc2nc(NC3CCc4cc(OCCOC5CCC5)cc(F)c43)c(Cl)cc2[nH]1` (some centres unmarked) [Compound I-2-41], the “EC150 (compound concentration showing 150% relative to the control (100%))” value turned out to be 10 nM and the Emax turned out to be 604%.

As for `O[C@@H]1CO[C@H]2[C@@H]1OC[C@H]2Oc1nc2nc(NC3CCc4cc(OCCOC5CCCC5)cc(F)c43)c(Cl)cc2[nH]1` (some centres unmarked) [Compound I-2-42], the “EC150 (compound concentration showing 150% relative to the control (100%))” value came out at 9.1 nM and the Emax was found to be 600%.

Turning to `CC(C)(C)OCCOc1cc(F)c2c(c1)CCC2Nc1nc2nc(O[C@@H]3CO[C@H]4[C@@H]3OC[C@H]4O)[nH]c2cc1Cl` (some centres unmarked) [Compound I-2-43], the “EC150 (compound concentration showing 150% relative to the control (100%))” value worked out at 31 nM and the Emax amounted to 612%.

For the compound `COCOCCOc1cc(F)c2c(c1)CCC2Nc1nc2nc(O[C@@H]3CO[C@H]4[C@@H]3OC[C@H]4O)[nH]c2cc1Cl` (some centres unmarked) [Compound I-2-44], the “EC150 (compound concentration showing 150% relative to the control (100%))” value amounted to 3.8 nM and the Emax was 595%.

Turning to `Cc1cc(-c2cc(F)c3c(c2)CC[C@@H]3Nc2nc3nc(O[C@@H]4CO[C@H]5[C@@H]4OC[C@H]5O)[nH]c3cc2Cl)cnn1` [Compound I-2-45], the “EC150 (compound concentration showing 150% relative to the control (100%))” value was found to be 2.1 nM and the Emax is 711%.

Turning to `Cc1ncc(-c2cc(F)c3c(c2)CC[C@@H]3Nc2nc3nc(O[C@@H]4CO[C@H]5[C@@H]4OC[C@H]5O)[nH]c3cc2Cl)cn1` [Compound I-2-46], the “EC150 (compound concentration showing 150% relative to the control (100%))” value is 3.3 nM and the Emax was determined as 708%.

For `O[C@@H]1CO[C@H]2[C@@H]1OC[C@H]2Oc1nc2nc(N[C@H]3CCc4cc(C5=CCOC5)cc(F)c43)c(Cl)cc2[nH]1` [Compound I-2-47], the “EC150 (compound concentration showing 150% relative to the control (100%))” value amounted to 2.3 nM and the Emax worked out at 724%.

On to `CC(C)n1cc(-c2cc(F)c3c(c2)CC[C@@H]3Nc2nc3nc(O[C@@H]4CO[C@H]5[C@@H]4OC[C@H]5O)[nH]c3cc2Cl)ccc1=O` [Compound I-2-48], for which the “EC150 (compound concentration showing 150% relative to the control (100%))” value amounted to 6.2 nM and the Emax came out at 737%.

`O[C@@H]1CO[C@H]2[C@@H]1OC[C@H]2Oc1nc2nc(NC3CCc4cc(O[C@@H]5CCOC5)cc(F)c43)c(Cl)cc2[nH]1` (some centres unmarked) [Compound I-2-49]: the “EC150 (compound concentration showing 150% relative to the control (100%))” value stood at 3.4 nM and the Emax worked out at 667%.

Consider `O[C@@H]1CO[C@H]2[C@@H]1OC[C@H]2Oc1nc2nc(NC3CCc4cc(O[C@H]5CCOC5)cc(F)c43)c(Cl)cc2[nH]1` (some centres unmarked) [Compound I-2-50], for which the “EC150 (compound concentration showing 150% relative to the control (100%))” value worked out at 1.9 nM and the Emax is 678%.

Turning to `O[C@@H]1CO[C@H]2[C@@H]1OC[C@H]2Oc1nc2nc(NC3CCc4cc(OC5COC5)cc(F)c43)c(Cl)cc2[nH]1` (some centres unmarked) [Compound I-2-51], the “EC150 (compound concentration showing 150% relative to the control (100%))” value is given as 4.7 nM and the Emax turned out to be 688%.

Take `COCCCOc1cc(F)c2c(c1)CCC2Nc1nc2nc(O[C@@H]3CO[C@H]4[C@@H]3OC[C@H]4O)[nH]c2cc1Cl` (some centres unmarked) [Compound I-2-52]: the “EC150 (compound concentration showing 150% relative to the control (100%))” value amounted to 3.7 nM and the Emax turned out to be 629%.

In the case of `O[C@@H]1CO[C@H]2[C@@H]1OC[C@H]2Oc1nc2nc(NC3CCc4cc(OCC5COC5)cc(F)c43)c(Cl)cc2[nH]1` (some centres unmarked) [Compound I-2-53], the “EC150 (compound concentration showing 150% relative to the control (100%))” value was determined as 4 nM and the Emax came to 637%.

Regarding `CC1(COc2cc(F)c3c(c2)CCC3Nc2nc3nc(O[C@@H]4CO[C@H]5[C@@H]4OC[C@H]5O)[nH]c3cc2Cl)COC1` (some centres unmarked) [Compound I-2-54], the “EC150 (compound concentration showing 150% relative to the control (100%))” value came to 1.5 nM and the Emax is 643%.

Regarding `CS(=O)(=O)CCCOc1cc(F)c2c(c1)CCC2Nc1nc2nc(O[C@@H]3CO[C@H]4[C@@H]3OC[C@H]4O)[nH]c2cc1Cl` (some centres unmarked) [Compound I-2-55], the “EC150 (compound concentration showing 150% relative to the control (100%))” value was found to be 3.6 nM and the Emax was 637%.

With `COc1ncc(-c2cc(F)c3c(c2)CC[C@@H]3Nc2nc3nc(O[C@@H]4CO[C@H]5[C@@H]4OC[C@H]5O)[nH]c3cc2Cl)cn1` [Compound I-2-56], the “EC150 (compound concentration showing 150% relative to the control (100%))” value came out at 0.81 nM and the Emax came out at 681%.

As to `O[C@@H]1CO[C@H]2[C@@H]1OC[C@H]2Oc1nc2nc(N[C@H]3CCc4cc(-c5cnc(C6CC6)nc5)cc(F)c43)c(Cl)cc2[nH]1` [Compound I-2-57], the “EC150 (compound concentration showing 150% relative to the control (100%))” value turned out to be 11 nM and the Emax was 636%.

For `O[C@@H]1CO[C@H]2[C@@H]1OC[C@H]2Oc1nc2nc(NC3CCc4cc(OCCOCC(F)F)cc(F)c43)c(Cl)cc2[nH]1` (some centres unmarked) [Compound I-2-59], the “EC150 (compound concentration showing 150% relative to the control (100%))” value is reported as 4.5 nM and the Emax was 634%.

Turning to `O[C@@H]1CO[C@H]2[C@@H]1OC[C@H]2Oc1nc2nc(NC3CCc4cc(OC5CC6(COC6)C5)cc(F)c43)c(Cl)cc2[nH]1` (some centres unmarked) [Compound I-2-60], the “EC150 (compound concentration showing 150% relative to the control (100%))” value came out at 6.7 nM and the Emax was 634%.

Turning to `O[C@@H]1CO[C@H]2[C@@H]1OC[C@H]2Oc1nc2nc(N[C@H]3CCc4cc(-c5cncnc5)cc(F)c43)c(Cl)cc2[nH]1` [Compound I-2-61], the “EC150 (compound concentration showing 150% relative to the control (100%))” value stood at 3.1 nM and the Emax is 649%.

Consider `CN(C)c1ncc(-c2cc(F)c3c(c2)CC[C@@H]3Nc2nc3nc(O[C@@H]4CO[C@H]5[C@@H]4OC[C@H]5O)[nH]c3cc2Cl)cn1` [Compound I-2-62], for which the “EC150 (compound concentration showing 150% relative to the control (100%))” value was 9.4 nM and the Emax was determined as 638%.

`O=c1[nH]cc(-c2cc(F)c3c(c2)CC[C@@H]3Nc2nc3nc(O[C@@H]4CO[C@H]5[C@@H]4OC[C@H]5O)[nH]c3cc2Cl)cc1F` [Compound I-2-63]: the “EC150 (compound concentration showing 150% relative to the control (100%))” value stood at 3.9 nM and the Emax came out at 653%.

With `O[C@@H]1CO[C@H]2[C@@H]1OC[C@H]2Oc1nc2nc(N[C@H]3CCc4cc(-c5cnc(C(F)(F)F)nc5)cc(F)c43)c(Cl)cc2[nH]1` [Compound I-2-64], the “EC150 (compound concentration showing 150% relative to the control (100%))” value was found to be 9.3 nM and the Emax worked out at 676%.

As to `Cc1ccc(-c2cc(F)c3c(c2)CC[C@@H]3Nc2nc3nc(O[C@@H]4CO[C@H]5[C@@H]4OC[C@H]5O)[nH]c3cc2Cl)cn1` [Compound I-2-66], the “EC150 (compound concentration showing 150% relative to the control (100%))” value is given as 8.6 nM and the Emax stood at 711%.

On to `O[C@@H]1CO[C@H]2[C@@H]1OC[C@H]2Oc1nc2nc(N[C@H]3CCc4cc(-c5ccc(C(F)(F)F)nc5)cc(F)c43)c(Cl)cc2[nH]1` [Compound I-2-67], for which the “EC150 (compound concentration showing 150% relative to the control (100%))” value turned out to be 29 nM and the Emax amounted to 683%.

Take `Cn1cc(-c2cc(F)c3c(c2)CC[C@@H]3Nc2nc3nc(O[C@@H]4CO[C@H]5[C@@H]4OC[C@H]5O)[nH]c3cc2Cl)cc(F)c1=O` [Compound I-2-68]: the “EC150 (compound concentration showing 150% relative to the control (100%))” value stood at 1.8 nM and the Emax stood at 600%.

With `CCc1ncc(-c2cc(F)c3c(c2)CC[C@@H]3Nc2nc3nc(O[C@@H]4CO[C@H]5[C@@H]4OC[C@H]5O)[nH]c3cc2Cl)cn1` [Compound I-2-69], the “EC150 (compound concentration showing 150% relative to the control (100%))” value came to 3 nM and the Emax turned out to be 598%.

Consider `Cn1ccc(-c2cc(F)c3c(c2)CC[C@@H]3Nc2nc3nc(O[C@@H]4CO[C@H]5[C@@H]4OC[C@H]5O)[nH]c3cc2Cl)n1` [Compound I-2-70], for which the “EC150 (compound concentration showing 150% relative to the control (100%))” value turned out to be 5.2 nM and the Emax was 583%.

As to `CCOc1ncc(-c2cc(F)c3c(c2)CC[C@@H]3Nc2nc3nc(O[C@@H]4CO[C@H]5[C@@H]4OC[C@H]5O)[nH]c3cc2Cl)cn1` [Compound I-2-71], the “EC150 (compound concentration showing 150% relative to the control (100%))” value is 8.6 nM and the Emax was found to be 590%.

For the compound `O[C@@H]1CO[C@H]2[C@@H]1OC[C@H]2Oc1nc2nc(NC3CCc4cc(OCF)cc(F)c43)c(Cl)cc2[nH]1` (some centres unmarked) [Compound I-2-72], the “EC150 (compound concentration showing 150% relative to the control (100%))” value is on record as 1.8 nM and the Emax stood at 592%.

For the compound `CC(C)(O)Cn1cc(-c2cc(F)c3c(c2)CC[C@@H]3Nc2nc3nc(O[C@@H]4CO[C@H]5[C@@H]4OC[C@H]5O)[nH]c3cc2Cl)cn1` [Compound I-2-73], the “EC150 (compound concentration showing 150% relative to the control (100%))” value worked out at 1.4 nM and the Emax came to 608%.

Regarding `O[C@@H]1CO[C@H]2[C@@H]1OC[C@H]2Oc1nc2nc(N[C@H]3CCc4cc(-c5cnn(C6COC6)c5)cc(F)c43)c(Cl)cc2[nH]1` [Compound I-2-74], the “EC150 (compound concentration showing 150% relative to the control (100%))” value is recorded as 1.5 nM and the Emax is 609%.
